The source of these data is patent US9469615B2, “Quinoxalines and AZA-quinoxalines as CRTH2 receptor modulators” (Merck Sharp & Dohme Corp., priority 2010, dated 2016).

The target of this test is T1, hCRTH2 (Homo sapiens, UniProt Q9Y5Y4).
T1 construct: expressed in transfected cells; host or cells: HEK (human embryonic kidney) cells expressing hCRTH2; membrane preparation
T1 sequence (Q9Y5Y4 1-395): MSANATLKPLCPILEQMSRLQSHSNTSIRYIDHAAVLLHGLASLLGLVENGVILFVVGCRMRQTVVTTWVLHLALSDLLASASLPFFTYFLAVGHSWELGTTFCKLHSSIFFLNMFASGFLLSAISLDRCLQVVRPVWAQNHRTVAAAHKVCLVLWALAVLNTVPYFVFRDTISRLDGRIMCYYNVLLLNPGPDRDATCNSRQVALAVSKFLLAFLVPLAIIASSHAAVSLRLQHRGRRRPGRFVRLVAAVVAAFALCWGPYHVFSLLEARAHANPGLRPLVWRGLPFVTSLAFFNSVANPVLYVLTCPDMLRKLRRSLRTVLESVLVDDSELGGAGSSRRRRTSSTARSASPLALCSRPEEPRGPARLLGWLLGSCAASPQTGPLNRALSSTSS
Kind of test: Radioligand binding assay ([3H]PGD2 competition, HEK-hCRTH2 membranes). The conditions noted are these: [3H]PGD2 binding. Put shortly:
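Competition binding with 3.0 nM [3H]PGD2 and 8-20 μg HEK-hCRTH2 membrane protein in 50 mM Tris-HCl pH 7.4, 1 mM EDTA, 2 mM MnCl2, 1% Me2SO, 60 min at room temperature. Nonspecific binding defined with 10 μM PGD2; bound radioactivity counted after filtration.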

Molecules are shown by their SMILES.

For the compound `O=C(O)Cc1cccc(CCc2nc3cc(C(=O)N4CC(c5ccccc5)C4)ccc3nc2-c2ccc(F)cc2)c1` [compound 200, 3-[2-[3-(4-fluorophenyl)-7-[(3-phenyl-1-azetidinyl)carbonyl]-2-quinoxalinyl]ethyl] benzeneacetic acid], the Ki (usually the equilibrium dissociation constant of an inhibitor or competing ligand from its target) (rated A-E (Table A)) is 2.1 to 20 nM.

`CN(Cc1cccc(F)c1)C(=O)c1ccc2nc(-c3ccc(F)cc3)c(CCc3cccc(CC(=O)O)c3)nc2c1` [compound 201]: the Ki (rated A-E (Table A)) was in the range of 0.1 to 2 nM. In turn, `CN(Cc1ccccc1)C(=O)c1ccc2nc(-c3ccc(F)cc3)c(CCc3cccc(CC(=O)O)c3)nc2c1` [compound 202, 3-[2-[3-(4-fluorophenyl)-7-[[methyl(phenylmethyl)amino]carbonyl]-2-quinoxalinyl]ethyl] benzeneacetic acid] came in with a Ki (rated A-E (Table A)) of 0.1 to 2 nM. Still for that read-out and setting: then `CC(CCCc1nc2cc(C(=O)NCc3cccc(F)c3)ccc2nc1-c1ccc(F)cc1)C(=O)O` (stereo not drawn) [compound 203, 3-(4-fluorophenyl)-7-[[[(3-fluorophenyl)methyl]amino]carbonyl]-alpha-methyl-2-quinoxalinepentanoic acid], with 2.1 to 20 nM. Where the note is “rated A-E (Table A)”, `CC(CCCc1nc2cc(C(=O)NCc3ccc(F)cc3)ccc2nc1-c1ccc(F)cc1)C(=O)O` (stereo not drawn) [compound 204, 3-(4-fluorophenyl)-7-[[[(4-fluorophenyl)methyl]amino]carbonyl]-alpha-methyl-2-quinoxalinepentanoic acid] returned an inhibitory constant (Ki) of 2.1 to 20 nM.

The compound `CC(CCCc1nc2cc(C(=O)N3CCC(c4ccccc4)CC3)ccc2nc1-c1ccc(F)cc1)C(=O)O` (stereo not drawn) [compound 205, 3-(4-fluorophenyl)-alpha-methyl-7-[(4-phenyl-1-piperidinyl)carbonyl]-2-quinoxalinepentanoic acid] showed a Ki (rated A-E (Table A)) of 2.1 to 20 nM.

Regarding `CC(CCCc1nc2cc(C(=O)N3CCN(c4ccccc4)CC3)ccc2nc1-c1ccc(F)cc1)C(=O)O` (stereo not drawn) [compound 206, 3-(4-fluorophenyl)-alpha-methyl-7-[(4-phenyl-1-piperazinyl)carbonyl]-2-quinoxalinepentanoic acid], for the setting “rated A-E (Table A)”, the Ki was in the range of 2.1 to 20 nM. `CC(CCCc1nc2cc(C(=O)NCc3ccc(C#N)cc3)ccc2nc1-c1ccc(F)cc1)C(=O)O` (stereo not drawn) [compound 207, 7-[[[(4-cyanophenyl)methyl]amino]carbonyl]-3-(4-fluorophenyl)-alpha-methyl-2-quinoxalinepentanoic acid]: under “rated A-E (Table A)”, the inhibition constant Ki lay in the range of 2.1 to 20 nM. On the same count and under the same terms, then `CC(CCCc1nc2cc(C(=O)N3CC(c4ccccc4)C3)ccc2nc1-c1ccc(F)cc1)C(=O)O` (stereo not drawn) [compound 208, 3-(4-fluorophenyl)-alpha-methyl-7-[(3-phenyl-1-azetidinyl)carbonyl]-2-quinoxalinepentanoic acid], with 2.1 to 20 nM. Still for that read-out and setting: the result for `CC(CCCc1nc2cc(C(=O)N[C@H](C)c3ccc(F)cc3)ccc2nc1-c1ccc(F)cc1)C(=O)O` (stereo partly drawn) [compound 209, 3-(4-fluorophenyl)-7-[[[1(R)-(4-fluorophenyl)ethyl]amino]carbonyl]-alpha-methyl-2-quinoxalinepentanoic acid] reads 2.1 to 20 nM. Same read-out and setting: then `CC(CCCc1nc2cc(C(=O)N[C@@H](C)c3ccc(F)cc3)ccc2nc1-c1ccc(F)cc1)C(=O)O` (stereo partly drawn) [compound 210, 3-(4-fluorophenyl)-7-[[[1(S)-(4-fluorophenyl)ethyl]amino]carbonyl]-alpha-methyl-2-quinoxalinepentanoic acid], with 2.1 to 20 nM. On to `CC(CCCc1nc2cc(C(=O)N(C)Cc3cccc(F)c3)ccc2nc1-c1ccc(F)cc1)C(=O)O` (stereo not drawn) [compound 211, 3-(4-fluorophenyl)-7-[[[(3-fluorophenyl)methyl]methylamino]carbonyl]-alpha-methyl-2-quinoxalinepentanoic acid], for which the Ki (rated A-E (Table A)) lay within 2.1 to 20 nM.

As to `CC(CCCc1nc2cc(C(=O)N(C)Cc3ccccc3)ccc2nc1-c1ccc(F)cc1)C(=O)O` (stereo not drawn) [compound 212, 3-(4-fluorophenyl)-alpha-methyl-7-[[methyl(phenylmethyl)amino]carbonyl]-2-quinoxalinepentanoic acid], the Ki (rated A-E (Table A)) lay in the range of 2.1 to 20 nM.

`CC(CCCc1nc2cc(C(=O)N[C@@H](CCO)c3ccccc3)ccc2nc1-c1ccc(F)cc1)C(=O)O` (stereo partly drawn) [compound 213, 3-(4-fluorophenyl)-7-[[(3-hydroxy-1(S)-phenylpropyl)amino]carbonyl]-alpha-methyl-2-quinoxalinepentanoic acid]: the Ki (rated A-E (Table A)) was 20.1 to 200 nM. On the same count and under the same terms, the result for `COc1ccc(-c2nc3ccc(C(=O)N[C@H](C)c4ccc(F)cc4)cc3nc2CCCCC(=O)O)cc1` [compound 214, 7-[[[1(R)-(4-fluorophenyl)ethyl]amino]carbonyl]-3-(4-methoxyphenyl)-2-quinoxalinepentanoic acid] reads 0.1 to 2 nM. The same measure, in the same setting: then `C[C@@H](NC(=O)c1ccc2nc(-c3ccc(C#N)cc3)c(CCCCC(=O)O)nc2c1)c1ccc(F)cc1` [compound 215, 3-(4-cyanophenyl)-7-[[[1(R)-(4-fluorophenyl)ethyl]amino]carbonyl]-2-quinoxalinepentanoic acid], with 2.1 to 20 nM; and `CC(C)Oc1ccc(-c2nc3ccc(C(=O)N4CCC(c5ccccc5)CC4)cc3nc2CCCCC(=O)O)cc1` [compound 216, 3-[4-(1-methyl-ethoxy)phenyl]-7-[(4-phenyl-1-piperidinyl)carbonyl]-2-quinoxalinepentanoic acid], with 20.1 to 200 nM.

On to `O=C(O)CCCCc1nc2cc(C(=O)N[C@@H]3CCCc4ccccc43)ccc2nc1-c1ccc(F)cc1` [compound 217, 3-(4-fluorophenyl)-7-[[(1,2,3,4-tetrahydro-1(R)-naphthalenyl)amino]carbonyl]-2-quinoxalinepentanoic acid], for which the Ki runs as follows: (rated A-E (Table A)) 0.1 to 2 nM; (values in text) 1.2 nM.

The compound `O=C(O)CCCCc1nc2cc(C(=O)N[C@H]3CCCc4ccccc43)ccc2nc1-c1ccc(F)cc1` [compound 218, 3-(4-fluorophenyl)-7-[[(1,2,3,4-tetrahydro-1(S)-naphthalenyl)amino]carbonyl]-2-quinoxalinepentanoic acid] returned an inhibition constant (Ki) (rated A-E (Table A)) of 0.1 to 2 nM. Same read-out and setting: the result for `O=C(O)CCCCc1nc2cc(C(=O)N[C@@H]3CCCc4cc(F)ccc43)ccc2nc1-c1ccc(F)cc1` [compound 219, 3-(4-fluorophenyl)-7-[[(6-fluoro-1,2,3,4-tetrahydro-1(R)-naphthalenyl)amino]carbonyl]-2-quinoxalinepentanoic acid] reads 0.1 to 2 nM; that for `O=C(O)CCCCc1nc2cc(C(=O)N[C@H]3CCCc4cc(F)ccc43)ccc2nc1-c1ccc(F)cc1` [compound 220, 3-(4-fluorophenyl)-7-[[(6-fluoro-1,2,3,4-tetrahydro-1(S)-naphthalenyl)amino]carbonyl]-2-quinoxalinepentanoic acid], 0.1 to 2 nM; that for `O=C(O)CCCCc1nc2cc(C(=O)N[C@@H]3CCCc4cc(Cl)ccc43)ccc2nc1-c1ccc(F)cc1` [compound 221, 7-[[(6-chloro-1,2,3,4-tetrahydro-1(R)-naphthalenyl)amino]carbonyl]-3-(4-fluorophenyl)-2-quinoxalinepentanoic acid], 0.1 to 2 nM. Still for that read-out and setting: then `O=C(O)CCCCc1nc2cc(C(=O)N[C@H]3CCCc4cc(Cl)ccc43)ccc2nc1-c1ccc(F)cc1` [compound 222, 7-[[(6-chloro-1,2,3,4-tetrahydro-1(S)-naphthalenyl)amino]carbonyl]-3-(4-fluorophenyl)-2-quinoxalinepentanoic acid], with 2.1 to 20 nM. On the same count and under the same terms, the result for `O=C(O)CCCCc1nc2cc(C(=O)N[C@@H]3CCc4cc(F)ccc43)ccc2nc1-c1ccc(F)cc1` [compound 223, 7-[[(5-fluoro-2,3-dihydro-1H-inden-1(R)-yl)amino]carbonyl]-3-(4-fluorophenyl)-2-quinoxalinepentanoic acid] reads 0.1 to 2 nM; that for `O=C(O)CCCCc1nc2cc(C(=O)N[C@H]3CCc4cc(F)ccc43)ccc2nc1-c1ccc(F)cc1` [compound 224, 7-[[(5-fluoro-2,3-dihydro-1H-inden-1(5)-yl)amino]carbonyl]-3-(4-fluorophenyl)-2-quinoxalinepentanoic acid], 0.1 to 2 nM. Turning to `O=C(O)CCCCc1nc2cc(C(=O)N[C@@H]3CCc4cc(Cl)ccc43)ccc2nc1-c1ccc(F)cc1` [compound 225, 7-[[(5-chloro-2,3-dihydro-1H-inden-1(R)-yl)amino]carbonyl]-3-(4-fluorophenyl)-2-quinoxalinepentanoic acid], for the setting “rated A-E (Table A)”, the inhibitory constant (Ki) was in the range of 0.1 to 2 nM. The same measure, in the same setting: the result for `O=C(O)CCCCc1nc2cc(C(=O)N[C@H]3CCc4cc(Cl)ccc43)ccc2nc1-c1ccc(F)cc1` [compound 226, 7-[[(5-chloro-2,3-dihydro-1H-inden-1(S)-yl)amino]carbonyl]-3-(4-fluorophenyl)-2-quinoxalinepentanic acid] reads 0.1 to 2 nM; that for `O=C(O)CCCCc1nc2cc(C(=O)N[C@@H](c3ccc(Cl)cc3)C(F)(F)F)ccc2nc1-c1ccc(F)cc1` [compound 227, 7-[[[1(S)-(4-chlorophenyl)-2,2,2-trifluoroethyl]amino]carbonyl]-3-(4-fluorophenyl)-2-quinoxalinepentanoic acid], 0.1 to 2 nM; that for `O=C(O)CCCCc1nc2cc(C(=O)N[C@H](c3ccc(Cl)cc3)C(F)(F)F)ccc2nc1-c1ccc(F)cc1` [compound 228, 7-[[[1(R)-(4-chlorophenyl)-2,2,2-trifluoroethyl]amino]carbonyl]-3-(4-fluorophenyl)-2-quinoxalinepentanoic acid], 0.1 to 2 nM. Same read-out and setting: then `O=C(O)CCCCc1nc2cc(C(=O)N[C@@H]3CCc4ccccc43)ccc2nc1-c1ccc(F)cc1` [compound 229, 7-[[(2,3-dihydro-1H-inden-1(R)-yl)amino]carbonyl]-3 - (4-fluorophenyl)-2-quinoxalinepentanoic acid], with 0.1 to 2 nM.
